For 15 molecules, TGI and GI50 results are on record in PubChem BioAssay (NCI).

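Test compounds were applied to cells in 96-well plates for 48 hours at 5 doses. GI50: concentration for 50% inhibition of growth. TGI is the concentration that stops growth completely.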 A value given as a limit tells only on which side of the number the result lay.

Common to all, as to assay: inhibition of tumour cell growth, NCI panel, 48 h
Test [1] deals with NCI-H23 lung.
The test system of test [2] is RPMI-8226 leukemia.
Test [3] deals with M14 melanoma.
Test [4] deals with 786-0 renal.
The subject of test [5] is HOP-92 NSCLC.
The subject of test [6] is NCI-H522 lung.
The subject of test [7] is MOLT-4 leukemia.
Test [8] concerns SN12C renal.
The subject of test [9] is SNB-19 CNS.
The subject of test [10] is CAKI-1 renal.

Take `CC1(C)OC2OC(COC(=O)C(c3ccccc3)c3ccccc3)C3OC(C)(C)OC3C2O1` (stereo not drawn): the TGI is more than 100 µM in test [1]; 42.7 µM in test [2]; more than 100 µM in test [3]; more than 100 µM in test [4]; more than 100 µM in [5]; more than 100 µM in [6]. Besides, the TGI in [7], in [8], in test [9] and in test [10] was more than 100 µM in each case. Besides, the GI50 in [7] is 3.76 µM; in test [10], more than 100 µM.
In the case of `Nc1c(C(=O)Nc2ccccc2O)[n+]([O-])c2ccccc2[n+]1[O-]`, the TGI was 84.7 µM in [1]; more than 100 µM in test [2]; more than 100 µM in test [3]; more than 100 µM in test [4]; more than 100 µM in test [5]; more than 100 µM in test [6]. Also, the TGI in test [7], in test [8], in [9] and in test [10] was more than 100 µM in each case.
Consider `O=C1c2ccccc2-c2c1c1ccc([N+](=O)[O-])cc1c(=O)n2CCCCl`, for which the GI50 in [1] was 3.52 µM; in [2] it was 1.36 µM; in test [3], 47 µM; in [4] it was more than 100 µM; in test [5], 22.9 µM; in test [6] it was 86.8 µM. The GI50 in [7] is 2.1 µM; in test [8] it was 27.1 µM; in test [10] it was 2.45 µM. Moreover, the TGI in test [1] was 54.1 µM; in [2], 33.3 µM; in [3], more than 100 µM; in [4], more than 100 µM; in [5] it was more than 100 µM; in [6], more than 100 µM. In addition, the TGI in test [7], in [8] and in test [10] was more than 100 µM throughout.
As for `CCN(CC)Cc1cc(Nc2cc(C(F)(F)F)c(C#N)c3nc4ccccc4n23)ccc1O`, the GI50 was 1.21 µM in test [1]; 0.812 µM in test [2]; 2.73 µM in test [3]; 2.57 µM in test [4]; 0.59 µM in test [5]; 1.05 µM in test [6]. The GI50 in test [7] was 2.46 µM; in test [9], 4.39 µM; in test [10], 1.77 µM. Also, the TGI was 8.29 µM in test [1]; 4.96 µM in [2]; 13.9 µM in test [3]; 9.98 µM in test [4]; 3.48 µM in [5]; 2.74 µM in [6]. The TGI in test [7] amounted to 75 µM; in [9], 36.2 µM; in test [10] it was 11.2 µM.
As to `Nc1c(-c2nc3ccccc3s2)[n+]([O-])c2ccccc2[n+]1[O-]`, the TGI in test [1] is 51.4 µM; in test [2], 89.5 µM; in [3] it was 74.2 µM; in test [4] it was more than 100 µM; in test [5], 62.3 µM; in test [6], 45.8 µM. For the same molecule, the TGI in test [7] is more than 100 µM; in test [9] it was more than 100 µM; in [10], 81.8 µM.
With `Cc1ccc(-c2nc(C(Cl)Cl)nc3cc(C)nn23)cc1`, the GI50 in test [1] is 0.742 µM; in test [2] it was 5.02 µM; in test [4], more than 100 µM; in [5], 1.95 µM; in test [6], 2.14 µM; in [7], 1.82 µM. Besides, the GI50 in test [8] was 5.88 µM; in test [9] it was 2.34 µM; in test [10], 1.59 µM. The TGI is 2.75 µM in test [1]; more than 100 µM in test [2]; more than 100 µM in test [4]; 7.64 µM in test [5]; more than 100 µM in test [6]; more than 100 µM in test [7]. For the same molecule, the TGI in test [8] was more than 100 µM; in [9], more than 100 µM; in test [10], 5.42 µM.
Regarding `COc1cc2c3c(n(CCCN4CCSCC4)c(=O)c2cc1OC)-c1cc2c(cc1C3=O)OCO2`, the GI50 is more than 100 µM in test [1]; more than 100 µM in [3]; 25.2 µM in [4]; 19.4 µM in test [5]; 19.9 µM in test [6]; 0.632 µM in [7]. Besides, the GI50 was 53.8 µM in [9] and 21.1 µM in test [10]. The TGI is more than 100 µM in test [1]; more than 100 µM in [3]; 75.5 µM in test [4]; 46.3 µM in test [5]; 65.4 µM in test [6]; 13.4 µM in test [7]. The TGI in test [9] and in test [10] was more than 100 µM throughout.
Regarding `O=c1c2cccc3cccc(c4n1CCCN=4)c32`, the TGI in test [1], in [2], in test [3], in test [4], in test [5] and in test [6] was more than 100 µM throughout. In addition, the TGI in [7], in test [8] and in [10] was more than 100 µM throughout.
Regarding `Cc1csc(CCC(N)C(=O)O)n1` (stereo not drawn), the TGI in [1], in test [2], in test [3], in test [4], in [5] and in [6] was more than 100 µM in each case. Moreover, the TGI in test [7], in test [8] and in test [10] was more than 100 µM throughout.
With `NCC(Cc1ccccc1)P(=O)(O)O` (stereo not drawn), the TGI in test [1], in test [3], in [4], in test [5], in test [6] and in test [7] was more than 100 µM each time. Further, the TGI in [8], in [9] and in test [10] was more than 100 µM each time.
Take `O=C(CN(/C=C/C(=O)C(F)(F)F)c1ccccc1)c1ccc(F)cc1`: the GI50 was 29.5 µM in [1]; 19.3 µM in test [2]; 41.1 µM in [4]; 24.8 µM in [5]; 19.2 µM in test [6]; 23.6 µM in [7]. For the same molecule, the GI50 in [8] was 21.2 µM; in test [9], 46 µM; in [10] it was 19.8 µM. The TGI in test [1] was more than 100 µM; in test [2] it was 54 µM; in [4], more than 100 µM; in [5], 90.4 µM; in test [6], 46.5 µM; in test [7] it was 79.8 µM. Moreover, the TGI is 54.9 µM in [8], more than 100 µM in test [9] and 48.9 µM in test [10].
On to `O=C1c2ccoc2C(=O)c2oc(=O)ccc21`, for which the TGI in [1] is 4.01 µM; in [2] it was 22.2 µM; in test [3] it was 21.8 µM; in test [4] it was 30.8 µM; in test [5] it was 39.8 µM; in [6], 4.18 µM. Moreover, the TGI in test [8] is 24.2 µM; in test [9] it was 31 µM; in test [10], more than 62.2 µM.
`CC1(C)N=C(N)N=C(N)N1c1ccc(OCCCCNC(=O)Nc2cccc(S(=O)(=O)F)c2)c(Cl)c1`: the GI50 is 3 µM in test [2]; 3.96 µM in test [3]; 2.75 µM in test [4]; 27.1 µM in test [5]; 1.83 µM in test [6]; 4.08 µM in test [7]. For the same molecule, the GI50 is 0.577 µM in [8], 2.91 µM in [9] and 35.4 µM in test [10]. The TGI in [2] was 93.3 µM; in [3], more than 100 µM; in test [4] it was more than 100 µM; in test [5] it was more than 100 µM; in [6], 69.7 µM; in test [7], more than 100 µM. In addition, the TGI in test [8], in [9] and in test [10] was more than 100 µM throughout.
Turning to `O=C1C2C(C(=O)N1CC[Se][Se]CCN1C(=O)C3C(C1=O)[C@H]1C=C[C@@H]3C1)[C@H]1C=C[C@@H]2C1` (stereo partly drawn), the GI50 was 0.802 µM in test [1]; 2.19 µM in [2]; 0.332 µM in test [3]; 0.369 µM in [4]; 0.575 µM in test [5]; 1.79 µM in test [6]. Further, the values for the GI50 in [7] and in test [10] were 0.41 µM and 0.301 µM, respectively. For the same molecule, the TGI came out at 4.48 µM in test [1]; 5.17 µM in test [2]; 1.97 µM in [3]; 1.29 µM in test [4]; 2.29 µM in test [5]; 4.44 µM in test [6]. In addition, the TGI in test [7] came out at 6.68 µM; in test [10], 0.828 µM.
Regarding `O=C(O)C1=C(C(=O)O)Oc2ccccc2O1`, the TGI in [1], in test [3], in test [4], in test [5], in test [6] and in test [7] was more than 100 µM throughout. The TGI in [8], in [9] and in test [10] was more than 100 µM throughout.
